Patent US20090286740A1, “PEPTIDES AND DERIVATIVES THEREOF, THE MANUFACTURING THEREOF AS WELL AS THEIR USE FOR PREPARING A THERAPEUTICALLY AND/OR PREVENTIVELY ACTIVE PHARMACEUTICAL COMPOSITION” (FIBREX MEDICAL RESEARCH & DEVELOPMENT GMBH, priority 2008, published 2009)
Where no end group is shown, it is not given here.

T1: vascular endothelial (VE) cadherin (human, UniProt P33151 48-784)
T1 sequence (looked up): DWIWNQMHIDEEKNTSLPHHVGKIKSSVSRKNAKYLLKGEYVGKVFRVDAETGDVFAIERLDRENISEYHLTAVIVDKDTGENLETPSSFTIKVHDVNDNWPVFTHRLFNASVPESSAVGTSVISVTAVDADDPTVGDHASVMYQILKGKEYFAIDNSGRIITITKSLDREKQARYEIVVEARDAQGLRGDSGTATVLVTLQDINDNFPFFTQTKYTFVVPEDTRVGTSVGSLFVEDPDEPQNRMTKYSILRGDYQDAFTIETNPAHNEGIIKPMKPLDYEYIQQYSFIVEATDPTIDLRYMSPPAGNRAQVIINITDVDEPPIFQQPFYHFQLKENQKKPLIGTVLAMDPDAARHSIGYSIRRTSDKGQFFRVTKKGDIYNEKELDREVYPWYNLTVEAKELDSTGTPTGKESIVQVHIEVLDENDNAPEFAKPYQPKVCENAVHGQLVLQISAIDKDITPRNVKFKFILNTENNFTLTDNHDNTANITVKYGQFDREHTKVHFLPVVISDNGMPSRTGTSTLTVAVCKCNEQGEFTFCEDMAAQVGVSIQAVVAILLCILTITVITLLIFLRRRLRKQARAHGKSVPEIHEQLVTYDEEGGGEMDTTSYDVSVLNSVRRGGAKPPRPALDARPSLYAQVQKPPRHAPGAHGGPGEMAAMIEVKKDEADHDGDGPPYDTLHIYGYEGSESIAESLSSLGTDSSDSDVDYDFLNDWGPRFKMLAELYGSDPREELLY


Columns and labels:
RhoA = assay: thrombin induced RhoA activation in HUVEC culture (active RhoA pull-down, blot); type: cell-based, human; settings: 5 U/ml thrombin alone, 5 min
Procedure: The biological effect of the compounds was established in a model thrombin induced RhoA activation in human umbilical vein endothelial cell (HUVEC) culture.
HUVEC are grown to confluence under standard conditions. Before induction of Rho activity HUVEC were starved for 4 h by using IMDM (Gibco) without growth factor and serum supplements. After the starvation period 5 U/ml Thrombin (Calbiochem) or 5 U thrombin plus 50 μg/ml of test compound are added to the starvation medium for 1, 5 and 10 min. Active RhoA was isolated using Rho Assay Reagent from Upstate according to manufactures instructions. Isolates were separated on a 15% polyacrylamid gel and blotted on Nitrocellulose-Membrane (Bio-Rad). RhoA was dedected by using Anti-Rho (-A, -B, -C), clone55 from Upstate (1:500).

[1] = molecular target: T1, vascular endothelial (VE) cadherin; assay: cell-based or functional assay

Molecule | Relative RhoA stimulation compared to unstimulated control (RhoA) | Relative RhoA stimulation compared to unstimulated control (thrombin-induced RhoA activation in HUVEC, Rho pull-down and blot; thrombin alone 5 min = 2.6) [1]
thrombin | 2.6 | 
GHRPLAPSLRPAPPPISGGGYR-OH [Gly-His-Arg-Pro-Leu-Ala-Pro-Ser-Leu-Arg-Pro-Ala-Pro-Pro-Pro-Ile-Ser-Gly-Gly-Gly-Tyr-Arg-OH] |  | 1.2 fold relative to unstimulated control
